Columns and labels:
granzyme B [1] = assay: RNA-seq of siRNA-transduced primary human NK cells; format: cell-based; conditions: without or with IL-15 (10 ng/ml) 16 h, vs Scr siRNA
Method: FIGS. 4A-4D depict the results of a study showing that downregulation of Cbl-b increases IFN-γ secretion in IL-15-activated primary human NK cells. (FIG. 4A) RNAseq was conducted using primary human NK cells transduced with either Cbl-b siRNA or Scr siRNA without or with incubation in IL-15 (10 ng/ml) for 16 h (4 donors for each group). […] (FIG. 4B) qRT-PCR was performed to quantify the mRNA levels of IFN-γ (n=6 donors) after IL-15 (10 ng/ml) 6 h stimulation. (FIG. 4C) The percentage of intracellular IFN-γ+ cells in un-transduced NK cells or those transduced with Cbl-b siRNA or Scr siRNA, each activated with IL-15 (10 ng/ml) for 24 h (11.5% vs 4.338%; P=0.0008; n=5 donors). (FIG. 4D) Supernatants were collected after IL-15 (10 ng/ml) for 24 h and IFN-γ concentrations measured by ELISA (18115 pg/ml vs 882.5 pg/ml; P=0.0099; n=7 donors). Scr-scrambled; *P<0.05, **P<0.01, ***P<0.001 by Student's two-tailed paired t-test or One-way ANOVA; ns, not significant. Data presented as mean±SEM.
To further explore how Cbl-b regulates the functions of primary human NK cells, we performed RNA-seq analyses using enriched primary NK cells from healthy donors transduced with Cbl-b siRNA or Scr siRNA without or with IL-15 treatment for 16 h (n=4 in each group). […]

[2] = system: Molm-13, MV4-11 or EOL-1 leukemia cell lines; format: cell-based, human
Method: (§1) FIGS. 3A-3E depict the results of a study showing that downregulation of Cbl-b enhances the cytotoxicity of primary human NK cells. (FIGS. 3A and 3B) Primary human NK cells transduced with Cbl-b siRNA or Scr siRNA for 24 h were stimulated without (FIG. 3A) or with (FIG. 3B) a low concentration of IL-15 (2 ng/ml) for 16 h, then co-cultured with ^51Cr labeled Molm-13, MV4-11 or EOL-1 leukemia cell lines for 4 h, followed by quantification of specific tumor cell lysis. Each experiment was repeated with 6 different normal donors. (FIG. 3C) qRT-PCR was performed to quantify the granzyme B (GZMB) mRNA levels (n=8 donors) in siRNA- and Scr siRNA-transduced primary human NK cells incubated without or with IL-15 (10 ng/ml) for 16 h. (FIG. 3D) The concentration of the granzyme B protein in the supernatants of Cbl-b siRNA- and Scr siRNA-transduced primary human NK cells incubated without (688.1 pg/ml vs 525.4 pg/ml; P=0.0232) or with IL-15 (10 ng/ml) for 24 h (8789 pg/ml vs 3397 pg/ml; P=0.0232) was measured by ELISA (n=8 donors). (FIG. 3E) The level of granzyme B protein in Cbl-b siRNA- and Scr siRNA-transduced primary human NK cells incubated without or with IL-15 (10 ng/ml) for 24 h was measured by immunoblot analysis. The data are representative of three experiments. Scr-scrambled; *P<0.05, **P<0.01, ***P<0.001, ****P<0.0001 by One-way or Two-way ANOVA; ns, not significant. […]

granzyme B [3] = assay: Granzyme B (GZMB) mRNA by qRT-PCR in siRNA-transduced NK cells; format: cell-based, human; conditions: without or with IL-15 (10 ng/ml) 16 h, vs Scr siRNA
Method: as §1

granzyme B [4] = assay: Granzyme B protein by immunoblot in siRNA-transduced NK cells; format: cell-based, human; conditions: without or with IL-15 (10 ng/ml) 24 h
Method: as §1, with “analysis.” for “analysis. The data are representative of three experiments. Scr-scrambled; *P<0.05, **P<0.01, ***P<0.001, ****P<0.0001 by One-way or Two-way ANOVA; ns, not significant.”
Immunoblotting. […] Densitometric analysis was performed to quantify intensity of gel bands with Image J (National Institutes of Health). […]

With “Cbl-b siRNA: Cbl-b-specific Accell siRNA (Dharmacon), SEQ ID NO:1, CCUUCAUGUUCAGAUGGUU (Accell modified siRNA, pattern not given here)” the “transcriptional level of granzyme B (RNA-seq)” value (granzyme B [1]) was “increased”, the “cytotoxicity (specific lysis) without IL-15” value [2] was “significant increase in cytotoxicity against three of the four AML cell lines” and the “Granzyme B mRNA” value (granzyme B [3]) was “significantly increased”. The “total GZMB protein” value (granzyme B [4]) was “increase of total GZMB protein”.
